Assay results from patent US11225503B2, “Crystobactamides” (HELMHOLTZ-ZENTRUM FÜR INFEKTIONSFORSCHUNG GMBH, priority 2013, dated 2022).

Assays:
E. coli WT = assay: Susceptibility of mutant E. coli strains, MIC; type: cell-based; conditions: Escherichia coli
Excerpt: Cystobactamides were screened using a panel of E. coli strains with typical mutations in gyrA and parC genes (Table 11).
High-level quinolone resistance often results from a combination of several target site mutations and altered efflux mechanisms. […] This, in turn, leads to overproduction of MarA and AcrAB and overexpression of the AcrAB efflux pump is associated with the MAR (multiple antibiotic resistance) phenotype.^[5]
Bacterial wildtype strains used in susceptibility assays were either part of our strain collection or purchased from the German Collection of Microorganisms and Cell Cultures (DSMZ) or from the American Type Culture Collection (ATCC). E. coli strain WT^[6] and E. coli mutants were kindly provided by Prof. Dr. P. Heisig, Pharmaceutical Biology and Microbiology, University of Hamburg.
(§1) MIC values were determined in microdilution assays. Overnight cultures were diluted in the appropriate growth medium to achieve an inoculum of 10^4-10^6 cfu/mL. Yeasts were grown in Myc medium (1% phytone peptone, 1% glucose, 50 mM HEPES, pH 7.0), S. pneumonia and E. faecalis in tryptic soy broth (TSB: 1.7% peptone casein, 0.3% peptone soymeal, 0.25% glucose, 0.5% NaCl, 0.25% K2HPO4; pH 7.3); M. smegmatis in Middlebrook 7H9 medium supplemented with 10% Middlebrook ADC enrichment and 2 ml/l glycerol). All other listed bacteria were grown in Müller-Hinton broth (0.2% beef infusion solids, 1.75% casein hydrolysate, 0.15% starch, pH 7.4). Cystobactamides and reference drugs were added directly to the cultures in sterile 96-well plates as duplicates and serial dilutions were prepared. Microorganisms were grown on a microplate shaker (750 rpm, 30-37° C., 18-48 h), except S. pneumonia, which was grown at non-shaking conditions (37° C., 5% CO2, 18 h). Growth inhibition was assessed by visual inspection and the MIC was defined as the lowest concentration of compound that inhibited visible growth.

E. coli gyrase = biological target: T1, E. coli gyrase (Escherichia coli, UniProt P0AES4+P0AES6); assay: Gyrase supercoiling (inhibition) assay; type: biochemical
T1 construct: purchased Inspiralis (Norwich, UK)
T1 sequence (P0AES4 whole entry, one chain of several): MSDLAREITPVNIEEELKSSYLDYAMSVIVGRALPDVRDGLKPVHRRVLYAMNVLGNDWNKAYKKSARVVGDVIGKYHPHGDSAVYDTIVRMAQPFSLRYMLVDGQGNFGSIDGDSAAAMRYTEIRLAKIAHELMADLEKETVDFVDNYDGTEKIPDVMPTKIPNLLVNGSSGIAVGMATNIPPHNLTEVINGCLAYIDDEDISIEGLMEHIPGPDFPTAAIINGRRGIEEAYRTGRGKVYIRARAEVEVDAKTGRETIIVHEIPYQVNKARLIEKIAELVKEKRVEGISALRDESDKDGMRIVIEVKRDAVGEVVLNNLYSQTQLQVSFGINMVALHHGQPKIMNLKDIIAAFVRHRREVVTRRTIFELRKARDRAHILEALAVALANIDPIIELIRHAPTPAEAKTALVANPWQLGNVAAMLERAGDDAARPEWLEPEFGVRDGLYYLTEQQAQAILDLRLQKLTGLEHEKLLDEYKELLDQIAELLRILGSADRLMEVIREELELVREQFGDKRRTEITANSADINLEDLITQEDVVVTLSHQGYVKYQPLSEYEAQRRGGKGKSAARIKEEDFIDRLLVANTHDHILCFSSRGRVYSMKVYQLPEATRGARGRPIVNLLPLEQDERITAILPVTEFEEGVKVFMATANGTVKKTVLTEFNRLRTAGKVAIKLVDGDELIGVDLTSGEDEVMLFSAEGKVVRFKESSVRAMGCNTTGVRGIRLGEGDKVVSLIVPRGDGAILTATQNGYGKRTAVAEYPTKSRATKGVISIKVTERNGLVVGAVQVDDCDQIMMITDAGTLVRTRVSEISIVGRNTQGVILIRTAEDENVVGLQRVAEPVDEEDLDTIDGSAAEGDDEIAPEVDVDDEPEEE
Description: To test the anti-gyrase activity of cystobactamides, commercial E. coli gyrase supercoiling kits (Inspiralis) were used.
For IC50 determination the band intensity of the supercoiled plasmid was determined using Adobe Photoshop, plotted vs. [cystobactamide] and fitted using Hill's equation.
All natural products stock solutions and dilutions were prepared in 100% DMSO and added to the supercoiling reactions giving a final DMSO concentration of 5% (v/v).
(§2) Following natural product concentrations were used in the assay:
Control reactions were: no enzyme and a standard reaction in presence of 5% (v/v) DMSO.
All reaction samples were equilibrated for 10 minutes at room-temperature in the absence of DNA. Then the relaxed plasmid was added to start the reaction.
To determine IC50 values, the formation of supercoiled (gyrase) or relaxed (topoisomerase I, II IV) plasmid was quantified using Adobe Photoshop (Histogram mode). […] All determined IC50 values are the averages of three independent experiments.

[1] = biological target: T2, H. sapiens topoisomerase I (Homo sapiens, UniProt P11387); assay: Topoisomerase I relaxation (inhibition) assay; type: biochemical
T2 construct: purchased Inspiralis (Norwich, UK)
T2 sequence (P11387 1-765): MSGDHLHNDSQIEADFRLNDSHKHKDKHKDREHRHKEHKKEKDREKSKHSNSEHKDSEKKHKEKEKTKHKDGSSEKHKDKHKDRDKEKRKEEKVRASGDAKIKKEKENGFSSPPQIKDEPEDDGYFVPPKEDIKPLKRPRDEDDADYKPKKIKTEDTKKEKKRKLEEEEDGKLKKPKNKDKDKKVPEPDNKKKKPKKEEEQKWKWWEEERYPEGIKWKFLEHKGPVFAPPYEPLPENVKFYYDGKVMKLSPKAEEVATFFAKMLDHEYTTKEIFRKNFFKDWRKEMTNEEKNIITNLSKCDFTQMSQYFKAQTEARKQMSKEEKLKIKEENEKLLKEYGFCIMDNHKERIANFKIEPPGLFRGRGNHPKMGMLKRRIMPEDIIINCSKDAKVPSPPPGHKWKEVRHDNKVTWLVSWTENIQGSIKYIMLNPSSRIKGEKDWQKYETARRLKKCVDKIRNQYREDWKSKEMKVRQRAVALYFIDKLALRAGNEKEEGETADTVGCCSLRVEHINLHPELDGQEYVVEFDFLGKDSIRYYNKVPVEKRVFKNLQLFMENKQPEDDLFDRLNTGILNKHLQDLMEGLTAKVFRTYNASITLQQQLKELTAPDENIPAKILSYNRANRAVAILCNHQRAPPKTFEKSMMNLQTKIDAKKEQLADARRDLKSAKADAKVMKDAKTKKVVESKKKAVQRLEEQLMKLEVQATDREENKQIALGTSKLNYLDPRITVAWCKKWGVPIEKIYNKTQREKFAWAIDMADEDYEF
Description: Aside the ATP-dependent type IIa topoisomerases like E. coli gyrase, topoIV and human topoII, the activity of cystobactamides on the ATP-independent human topoisomerase I was tested as well.
The topo I reactions were titrated with varying concentrations of A-D and resolved by agarose gel electrophoresis. For IC50 determination the band intensity of the supercoiled plasmid was determined using Adobe Photoshop, plotted vs. [cystobactamide] and fitted using Hill's equation.
as §2
Cystobactamide C: 300 μM; 30 μM; 3 μM
Control reactions were: no enzyme and a standard reaction in presence of 5% (v/v) DMSO. All reaction samples were equilibrated for 10 minutes at room-temperature in the absence of DNA. Then the relaxed plasmid was added to start the reaction
To determine IC50 values, the formation of supercoiled (gyrase) or relaxed (topoisomerase I, II IV) plasmid was quantified using Adobe Photoshop (Histogram mode). Plotting of these values versus the compound concentration yielded sigmoidal shaped curves, which were fitted using Hill's equation (Origin Pro 8.5). All determined IC50 values are the averages of three independent experiments.

[2] = system: several microorganisms and cell lines; assay: Biological evaluation, summary statements over the MIC and cytotoxicity tests; type: cell-based
Description: Cells were seeded at 6×10^3 cells per well of 96-well plates (Corning CellBind®) in complete medium (180 μl) and directly treated with cystobactamides dissolved in methanol in a serial dilution. Compound were tested in duplicate for 5 d, as well as the internal solvent control. After 5 d incubation, 5 mg/ml MTT in PBS (20 μL) was added per well and it was further incubated for 2 h at 37° C.[7] The medium was then discarded and cells were washed with PBS (100 μl) before adding 2-propanol/10N HCl (250:1, v/v; 100 μl) in order to dissolve formazan granules. The absorbance at 570 nm was measured using a microplate reader (EL808, Bio-Tek Instruments Inc.).
as §1

[3] = IC50 in the Gyrase inhibition assay, table, averages of three independent experiments
[4] = apparent IC50, E. coli gyrase, E. coli gyrase 20.5 nM eq. 1 unit

Structure (SMILES) | MIC (E. coli WT) [µg/mL] | IC50 (E. coli gyrase; IC50 gyrase, E. coli gyrase) [µM] | IC50 (E. coli gyrase; [3]) [µM] | IC50 (E. coli gyrase; [4]) [µM] | IC50 [1] [µM] | inhibition of pathogenic Gram-negative strains A. baumannii and P. aeruginosa (MIC range) ([2]; A. baumannii and P. aeruginosa) | average potency on Gram-positive bacteria compared with ciprofloxacin ([2]; E. faecalis, S. aureus, S. pneumonia, average MIC)
CO[C@H](C(=O)Nc1ccc(C(=O)Nc2ccc(C(=O)Nc3ccc(C(=O)O)cc3OC(C)C)c(O)c2OC(C)C)cc1)[C@H](NC(=O)c1ccc(NC(=O)c2ccc([N+](=O)[O-])cc2)cc1)C(=O)O [cystobactamide A, Cystobactamide A] | 0.5 | 6 | 6 | 6 | ~1 | low μg/ml range | exceeded that of ciprofloxacin
CC(C)Oc1cc(C(=O)O)ccc1NC(=O)c1ccc(NC(=O)c2ccc(N)cc2)c(OC(C)C)c1O [cystobactamide C, Cystobactamide C] | 8.1 | 7.2 | 7.2 | 7.7 | ~6 |  | 
